Article PMC12165043, “Neophytadiene, a Plant Specialized Metabolite, Mediates the Virus‐Vector‐Plant Tripartite Interactions” (Advanced Science, 2025)
Values joined by “and” are separate entries in the source; they are usually repeats but may differ in a detail not shown here. Equal values may be shown once.

Columns and labels:
[1] = system: Bemisia tabaci whiteflies; assay: Y-tube olfactory choice assay, volatile standard versus solvent control; format: in vivo; settings: for Whitefly preference for plant volatiles versus control (solvent only): number of whiteflies in the volatile arm: Fig 1F raw data, individual replicates (n = 9), 100 whiteflies released, counted for 20 min; for impact of volatile on whitefly preference: Y-tube, volatile standard versus solvent control, n = 9, result in words
Experimental: Y‐tube preference assays were conducted as per Shi et al.^[ [51] ^] with an air flow of 100 mL min^−1. A volatile standard (Sigma Aldrich, USA) and control (solvent) were placed in glass containers at either end of the Y‐tube and 100 whiteflies were released at the Y‐tube base. The number of whiteflies moving more than 5 cm into the Y‐tube arm and remaining there for at least 15 s was counted for 20 min. There were nine replicates per volatile for each of the eight volatile compounds.

BtOBP2 [2] = target: T1, BtOBP2 (Bemisia tabaci, UniProt A0A097BTY7); assay: Fluorescence competitive binding assay (displacement of 1-NPN from BtOBP2); settings: mean ± SEM; for IC50: BtOBP2 2 µM, ligand 2 to 20 µM, read-out: IC50, ligand concentration displacing 50% of the fluorescence intensity of the BtOBP2/1-NPN complex; for Ki: Ki = [IC50]/(1 + [1-NPN]/K1-NPN), read-out: Ki, dissociation constant
T1 sequence (A0A097BTY7 23-247): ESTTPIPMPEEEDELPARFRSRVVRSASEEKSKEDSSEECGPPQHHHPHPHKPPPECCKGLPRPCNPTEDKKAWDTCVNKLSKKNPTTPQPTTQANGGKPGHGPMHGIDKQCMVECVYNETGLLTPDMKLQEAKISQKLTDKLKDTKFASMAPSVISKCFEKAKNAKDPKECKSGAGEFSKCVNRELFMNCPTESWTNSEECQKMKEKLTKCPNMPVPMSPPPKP
Source text: (§1) The specific primers for BtOBP2 were designed using Primer 5 software to amplify the coding sequence according to the Phanta Max Super‐Fidelity DNA Polymerase protocol. Target DNA fragments were purified and ligated into the pEASY‐Blunt cloning vector, and positive colonies were identified by PCR and sequenced. The cloned plasmid was ligated into the pET28a vector (Invitrogen, Waltham USA) following digestion with BamHI and SalI. The resulting construct was transformed into Rosetta (DE3) Escherichia coli competent cells. When the OD600 of the recombinant BtOBP2 reached 0.6 to 0.8, induction was initiated by adding isopropyl‐β‐D‐1‐thiogalactopyranoside (IPTG) (1 mM) at 16 °C for 16 h, followed by purification using the Ni‐NTA purification system.^[ [59] ^] The target protein was verified by 10% SDS‐PAGE, and its concentration was determined with a BCA protein assay kit. The recombinant purified protein was stored at −80 °C until use. The target protein was subjected to Coomassie blue staining and western blot validation through 10% SDS‐PAGE using anti His‐Tag antibody, and its concentration was determined using a BCA protein assay kit. The purified recombinant protein was stored at −80 °C.
The binding affinity of BtOBP2 to the fluorescent probe N‐phenyl‐1‐naphthyl‐amine (1‐NPN1) was determined using a FL7000 fluorescence spectrophotometer (Hitachi, Tokyo Japan). Ligands and 1‐NPN were dissolved in HPLC‐grade methanol to a concentration of 1 mM, and then titrated with BtOBP2 (2 µM) to final concentrations ranging from 2 to 20 µM.^[ [60] ^] The optimal excitation and emission wavelengths of the recombinant protein BtOBP2 were determined, and the 1‐NPN/BtOBP2 mixture was excited at 220 nm with emission spectra recorded from 300 to 500 nm. The binding constants (Kd) of BtOBP2 to 1‐NPN were calculated by Scatchard analysis using Prism 5 software. The IC50 represents the concentration at which 50% of the probe was displaced by the ligand. The Ki values were calculated according to the following equation: Ki = [IC50]/(1 + [1‐NPN]/K1‐NPN), where [1‐NPN] is the free concentration of 1‐NPN, and K1‐NPN is the Kd of the 1‐NPN/BtOBP2 complex.^[ [61] ^]

Trialeurode vaporariorum = system: Trialeurode vaporariorum; design: method as in PMID 35244166; settings: ref [47]; cited from earlier work
whiteflies = system: whiteflies; design: method as in PMID 31842757; settings: ref [18]; cited from earlier work
[3] = system: Bemisia tabaci whiteflies; assay: Whitefly preference for neophytadiene after RNA interference (dsGFP, dsBtOBP2, dsOBP3); settings: for preference (whiteflies choosing Neophytadiene): Neophytadiene versus CK, single replicates; for preference (whiteflies choosing Neophytadiene) / preference (whiteflies choosing Neophytadiene), mean: Fig 7D; for preference (whiteflies choosing Neophytadiene), mean: unlabelled last row = mean of the 9 replicates
BtOBP1-8 genes = assay: Transcriptional response of BtOBP1-8 to neophytadiene (qRT-PCR); format: in vivo, Bemisia tabaci
Experimental: RNA was extracted using trizol reagent (Invitrogen, Waltham USA) and dissolved in double‐deionized water; cDNA was synthesized from total RNA (1 µg) using HiScript 1st Strand cDNA Synthesis kit (Vazyme, Nanjing China). Real‐time qPCR was conducted using the MonAmp SYBR Green qPCR Mix (Thermofisher, Waltham USA). Actin and UBI were selected as the housekeeping genes (Table S1, Supporting Information). Each experiment was repeated at least three times and relative gene expression levels calculated for analysis using the 2^−∆∆Ct method.
To investigate the expression profiles of BtOBP1‐8 genes in B. tabaci under neophytadiene treatment, the following experiment was performed. Tomato plants with an identical growth cycle were selected as the treatment group (sprayed with 3 µg g^−1 neophytadiene) and the control group (treated with water only). The treated plants were then placed in a 10 L hermetic container. Once the volatilization reached equilibrium, 500 pairs of adults were introduced into the closed container and fumigated under airtight conditions. Subsequently, the whiteflies were sampled at distinct time points (0, 24, 48, 72, 96 h) respectively for the determination of expression levels.

[4] = system: Bemisia tabaci whiteflies; assay: Whole-plant preference test, OELhca4 tomato plants sprayed with neophytadiene or water; format: in vivo
Experimental: Tests were conducted as per Shi et al.^[ [49] ^] with slight modifications. ToCV‐infected or control (mock‐inoculated) tomato plants were used for preference tests in screened cages. A second set of preference tests was also conducted using OELhca4 (Lhca4 overexpressed) tomato plants sprayed either with neophytadiene (3 µg g^−1 in water) or water only (control). Each cage contained two plants placed 40 cm apart. Under dim light, about 100 whiteflies that had been starved for 2 h were released above the center of the two plants and the whiteflies on each plant counted after 48 h. Each of the two preference tests (ToCV‐infected versus uninfected plants; OELhca4 plants sprayed with either neophytadiene or water) was replicated nine times.

BtOBP2 [5] = target: T1, BtOBP2; assay: Fluorescence binding of the probe 1-NPN to recombinant BtOBP2; settings: recombinant BtOBP2 2 µM, Scatchard analysis; read-out: binding constant (Kd) of 1-NPN to BtOBP2
Source text: as §1, with “When the OD600 of the recombinant BtOBP2 reached 0.6 to 0.8, induction was initiated by adding isopropyl‐β‐D‐1‐thiogalactopyranoside (IPTG) (1 mM) at 16 °C for 16 h, followed by purification using the Ni‐NTA purification system.^[ [59] ^]” left out, “The recombinant purified protein was stored at −80 °C until use.” left out, “The purified recombinant protein was stored at −80 °C.” left out
The binding affinity of BtOBP2 to the fluorescent probe N‐phenyl‐1‐naphthyl‐amine (1‐NPN1) was determined using a FL7000 fluorescence spectrophotometer (Hitachi, Tokyo Japan). […] The optimal excitation and emission wavelengths of the recombinant protein BtOBP2 were determined, and the 1‐NPN/BtOBP2 mixture was excited at 220 nm with emission spectra recorded from 300 to 500 nm. The binding constants (Kd) of BtOBP2 to 1‐NPN were calculated by Scatchard analysis using Prism 5 software. […]

TYLCV = system: TYLCV; design: method as in PMID 36086899; settings: ref [48]; cited from earlier work

C=C1CC/C=C(\C)CC[C@@H]2[C@@H]1CC2(C)C [β‐caryophyllene]
Whitefly preference for plant volatiles versus control (solvent only): number of whiteflies in the volatile arm [1]: 41 and 20 and 16 and 6 and 19 and 27 and 31 and 10 and 39 | impact of volatile on whitefly preference [1]: significantly repelled whiteflies | IC50 (BtOBP2 [2]): 14.2 ± 0.72 µM | Ki (BtOBP2 [2]): 10.6 ± 0.54 µM

C=C(C)[C@H]1CC=C(C)CC1 [limonene]
effect on settling of whitefly on an otherwise-preferred tomato cultivar (Trialeurode vaporariorum): repelled

CC1=CC=C(C(C)C)CC1 [α‐terpinene]
Whitefly preference for plant volatiles versus control (solvent only): number of whiteflies in the volatile arm [1]: 9 and 19 and 28 and 37 and 36 and 43 | impact of volatile on whitefly preference [1]: significantly repelled whiteflies | IC50 (BtOBP2 [2]): 20.4 ± 1.29 µM | Ki (BtOBP2 [2]): 15.2 ± 0.96 µM

CC1=CCC2CC1C2(C)C (stereo not drawn) [α‐pinene]
Whitefly preference for plant volatiles versus control (solvent only): number of whiteflies in the volatile arm [1]: 23 and 24 and 30 and 26 and 17 and 40 and 21 and 6 and 43 | impact of volatile on whitefly preference [1]: significantly repelled whiteflies | IC50 (BtOBP2 [2]): 14.6 ± 0.57 µM | Ki (BtOBP2 [2]): 10.9 ± 0.43 µM

C=CC(=C)CCCC(C)CCCC(C)CCCC(C)C (stereo not shown) [Neophytadiene]
attraction of whiteflies (whiteflies): highly attractive to whiteflies | preference for neophytadiene of BtOBP2-silenced (dsOBP2) whiteflies ([3]; after RNA interference of BtOBP2, n = 9): no preference | preference for neophytadiene of BtOBP3-silenced (dsOBP3) whiteflies ([3]; after RNA interference of BtOBP3, n = 9): still exhibited preference | preference (whiteflies choosing Neophytadiene) ([3]; dsGFP-treated whiteflies): 95 and 86 and 80 and 93 and 85 and 88 and 79 and 90 | preference (whiteflies choosing Neophytadiene), mean ([3]; dsGFP-treated whiteflies): 87.6667 | preference (whiteflies choosing Neophytadiene) ([3]; dsOBP2-treated whiteflies): 36 and 41 and 48 and 46 and 42 and 58 and 59 and 45 | preference (whiteflies choosing Neophytadiene), mean ([3]; dsOBP2-treated whiteflies): 46.3333 | Whitefly preference for plant volatiles versus control (solvent only): number of whiteflies in the volatile arm [1]: 86 and 89 and 65 and 80 and 52 and 100 and 48 | impact of volatile on whitefly preference [1]: attracted B. tabaci | OBP1 relative expression (BtOBP1-8 genes; 24h, Fig 7A): 1.5096 and 1.0333 and 1.7792 | OBP2 relative expression (BtOBP1-8 genes; 24h, Fig 7A): 2.314 and 1.938 and 1.255 | OBP3 relative expression (BtOBP1-8 genes; 24h, Fig 7A): 2.295 and 2.274 and 2.135 | OBP4 relative expression (BtOBP1-8 genes; 24h, Fig 7A): 1.915 and 1.067 and 1.378 | OBP5 relative expression (BtOBP1-8 genes; 24h, Fig 7A): 0.9141 and 1.109 and 1.357 | OBP7 relative expression (BtOBP1-8 genes; 24h, Fig 7A): 0.4368 and 0.5508 and 0.2972 | OBP1 relative expression (BtOBP1-8 genes; 48h, Fig 7A): 0.9445 and 0.6245 and 1.003 | OBP2 relative expression (BtOBP1-8 genes; 48h, Fig 7A): 3.877 and 2.855 and 4.158 | OBP3 relative expression (BtOBP1-8 genes; 48h, Fig 7A): 2.98 and 1.807 and 1.705 | OBP4 relative expression (BtOBP1-8 genes; 48h, Fig 7A): 1.105 and 0.8073 and 0.7508 | OBP7 relative expression (BtOBP1-8 genes; 48h, Fig 7A): 0.7647 and 0.5685 and 0.6675 | OBP4 relative expression (BtOBP1-8 genes; 72h, Fig 7A): 0.7926 and 1.238 and 0.8444 | OBP6 relative expression (BtOBP1-8 genes; 72h, Fig 7A): 0.6207 and 0.9359 and 1.164 | OBP3 relative expression (BtOBP1-8 genes; 96h, Fig 7A): 2.791 and 2.514 and 4.498 | OBP4 relative expression (BtOBP1-8 genes; 96h, Fig 7A): 1.221 and 0.8392 and 1.362 | OBP6 relative expression (BtOBP1-8 genes; 96h, Fig 7A): 0.4452 and 0.8016 and 0.4814 | OBP7 relative expression (BtOBP1-8 genes; 96h, Fig 7A): 0.7369 and 0.9206 and 0.9224 | OBP8 relative expression (BtOBP1-8 genes; 96h, Fig 7A): 0.9529 and 0.9384 and 0.8486 | relative gene expression of BtOBP1-8 following neophytadiene exposure (BtOBP1-8 genes; continuous release for 96 h, measured every 24 h): Only two genes, BtOBP2 and BtOBP3, increased their expression over time | preference (whiteflies on plant) ([4]; OELhca4+Neophytadiene versus OELhca4, Fig 5J, single replicates): 80 and 70 and 78 and 72 and 60 and 66 and 76 and 73 | Whitefly preference for neophytadiene-sprayed versus water-sprayed OELhca4 plants ([4]; neophytadiene 3 µg g^−1 in water, whiteflies counted after 48 h, n = 9): attracted more whiteflies | IC50 (BtOBP2 [2]): 7.95 ± 0.45 µM

C=C1CCC2CC1C2(C)C (stereo not drawn) [β‐pinene]
Whitefly preference for plant volatiles versus control (solvent only): number of whiteflies in the volatile arm [1]: 12 and 26 and 37 and 29 and 28 and 24 and 10 and 31 and 15 | impact of volatile on whitefly preference [1]: significantly repelled whiteflies | IC50 (BtOBP2 [2]): 13.7 ± 0.51 µM | Ki (BtOBP2 [2]): 10.2 ± 0.38 µM

c1ccc(Nc2cccc3ccccc23)cc1 [1‐NPN, N‐Phenyl‐1‐naphthylamine]
Kd (BtOBP2 [5]): 2.94 ± 0.08 µM

CC/C=C\CCO [(Z)‐3‐hexenol]
effect on tomato defense against infection by whitefly-transmitted TYLCV (TYLCV): improves tomato defense

Cc1ccc(C(C)C)cc1 [ρ‐cymene]
Whitefly preference for plant volatiles versus control (solvent only): number of whiteflies in the volatile arm [1]: 10 and 20 and 17 and 26 and 18 and 25 and 27 and 23 | impact of volatile on whitefly preference [1]: significantly repelled whiteflies | effect on settling of whitefly on an otherwise-preferred tomato cultivar (Trialeurode vaporariorum): repelled | IC50 (BtOBP2 [2]): 16.3 ± 0.49 µM | Ki (BtOBP2 [2]): 12.1 ± 0.36 µM

CC12CCC(CC1)C(C)(C)O2 [1, 8‐cineole]
effect on settling of whitefly on an otherwise-preferred tomato cultivar (Trialeurode vaporariorum): repelled

C=C1C=CC(C(C)C)CC1 (stereo not drawn) [β‐phellandrene]
Whitefly preference for plant volatiles versus control (solvent only): number of whiteflies in the volatile arm [1]: 34 and 28 and 40 and 32 and 46 and 20 and 36 and 43 and 14 | impact of volatile on whitefly preference [1]: significantly repelled whiteflies | IC50 (BtOBP2 [2]): 25.4 ± 3.39 µM | Ki (BtOBP2 [2]): 19 ± 2.53 µM

phytol
Whitefly preference for plant volatiles versus control (solvent only): number of whiteflies in the volatile arm [1]: 58 and 50 and 60 and 24 and 48 and 27 and 44 and 38 | impact of volatile on whitefly preference [1]: did not influence whitefly preference | IC50 (BtOBP2 [2]): 26.1 ± 1.48 µM | Ki (BtOBP2 [2]): 19.5 ± 1.1 µM
